Test results reported in patent EP1143976B9, “BETA-D-2', 3' -DIDEHYDRO-2', 3' -DIDEOXY-5-FLUOROCYTIDINE FOR USE IN THE TREATMENT OF HIV INFECTIONS” (priority 1999, dated 2000).
Several values for one entry are separate records, joined by “and”; a condition that tells them apart may be missing. Equal values may be shown once. Read-outs that look alike come from different tables or passages of the source.

Experiments:
[1] = system: HIV-1 in acutely infected human PBM cells; assay: Median effect and combination index analysis in acutely infected human PBM cells (Day 6); format: cell-based; details: Human immunodeficiency virus 1, PBMC, 144 h
Source text: (§1) Table 5 provides the median effective concentration and combinations index (C.I.) values for D-D4FC alone and in combination with AZT and D4T in acutely infected human PBM cells (Day6). Table 6 describes the effect of β-D and β-L-D4FC against HIV-1 and cloned viruses I human PBM cells.

[2] = system: xxK70N//R172K; assay: D-D4FC susceptibility of recombinant HIV-1 in MT-2 cells; format: cell-based
Method: (§2) Antiviral susceptibility assays. Virus susceptibility to D-D4FC was measured by measuring percent inhibition of p24 antigen production. Briefly, MT-2 cells (1 x 10^5 cells/ml) were infected with virus at a moi of 0.01 in the presence of serial D-D4FC dilutions. Each dilution was tested in triplicate. Culture supernatants were harvested day 7 post infection and assayed for p24 antigen production using a commercial assay (DuPont, NEN Products, Wilmington, Del.).
(§3) Production of mutant recombinant HIV-1. Mutant RT was generated using the Altered SitesII in vitro Mutagenesis System (Promega, Madison, WI). Mutagenesis was carried out on HIV-1LAI, RT cloned into a mutagenesis vector (PALTER, Promega). The presence of the desired mutation was determined by direct sequencing of the RT gene. The mutant RT was subsequently ligated into the pxxHIV-1 LAI vector. Stocks of mutant virus were then prepared by electrophorating 5-10 µg of DNA into 1.3 x 10^7 MT-2 cells as described above.

[3] = system: xxR172K; assay: as above; format: cell-based
Method: as §2, §3

[4] = system: xxV90I; assay: as above; format: cell-based
Method: as §2, §3

[5] = system: xxK70N; assay: as above; format: cell-based
Method: as §2, §3

[6] = system: xxK65R; assay: as above; format: cell-based
Method: as §2, §3

[7] = system: xxV901/R172K; assay: as above; format: cell-based
Method: as §2, §3

[8] = system: 4xM184VPITT (184V,67N,70R,215Y,219Q); assay: Effect against cloned viruses, in MT-2 cells; format: cell-based, HIV-1; details: for FI50: In MT-2 cells, EC50 relative to HIV-1LAV or xxBRUPITT
[9] = system: G2-2PITT (103N,41L,184V,210W,others); assay: Effect against cloned viruses, in MT-2 cells; format: cell-based, HIV-1; details: for FI50: In MT-2 cells, EC50 relative to HIV-1LAV or xxBRUPITT
[10] = system: HIV-1p37 D-Fd4C#1; assay: Antiviral susceptibility assay (p24 antigen) in MT-2 cells, D-D4FC selected virus, selection #1 passage 37; format: cell-based; details: V90I, R172K
Method: (§4) Selection of resistant virus. Prior to starting the selection of D-D4FC resistant virus, the starting virus (HIV -1LAI) was passaged as cell-free virus for 10 cycles in MT-2 cells in the absence of drug. D-D4FC resistant virus was selected by serially passaging HIV-1LAI in MT-2 cells in the presence of gradually increasing concentrations of D-D4FC. The selection for D-D4FC resistant virus was conducted twice. Selection was initiated by inoculating 1 x 10^6 MT-2 cells with […] of virus. At peak viral cytopathic effect (4-7 days post infection), supernatant from the infected cultures was collected and 0.1-0.3 ml were subsequently used to initiate another cycle of infection. Supernatant was also aliquoted and stored at -80°C for characterization of selected virus. Virus was passaged at least three times at each concentration, the number of cycles at any given concentration of drug being dependent on the ability of virus to grow at the particular concentration of D-D4FC. During the first selection procedure, virus was passaged once in the absence of drug prior to increasing the drug concentration (Table 2). As a control, virus was also passaged in parallel in the absence of drug. […]
Antiviral susceptibility assays. Virus susceptibility to D-D4FC was measured by measuring percent inhibition of p24 antigen production. […]

[11] = system: HIV-1p20 D-Fd4C#2; assay: Antiviral susceptibility assay (p24 antigen) in MT-2 cells, D-D4FC selected virus, selection #2 passage 20; format: cell-based; details: mutations K65R, V179D; for EC50: p24 antigen, selection #2 passage 20
Method: as §4, §2

[12] = system: HIV-1LAI; assay: Antiviral susceptibility assay (inhibition of p24 antigen production) in MT-2 cells, starting virus; format: cell-based; details: Human immunodeficiency virus 1, MT2, 168 h, day 7 post infection, HIV-1LAI P0, wild type baseline
Method: Cells. MT-2 cells (AIDS Research and Reference Reagent Program, National Institute of Allergy and Infectious Diseases, National Institutes of Health, contributed by D. Richman) were cultured in RPMI 1640 (Whittaker M.A., Bioproducts, Walkersville, MD) supplemented with 10% fetal bovine serum, 10 mM HEPES buffer, penicillin (50 IU/ml) and streptomycin (50 µg/ml).
Viruses. HIV-1LAI, a molecularly cloned clinical isolate, was used both as the starting virus for the resistance selection as well as for the generation of recombinant mutants. Stock preparations of HIV-1LAI, were prepared by electrophorating 5-10 jig of proviral plasmid DNA into 1.3 x 10^7 MT-2 cells. At peak viral cytopathic effect (generally 7 days post transfection), the supernatant from infected cultures was collected, aliquoted and stored at -80°C until use. Virus preparations were titered by threefold endpoint dilution in MT-2 cells, and the TCID50 was calculated with the Reed and Muench equation.
Antiviral susceptibility assays. Virus susceptibility to D-D4FC was measured by measuring percent inhibition of p24 antigen production. Briefly, MT-2 cells (1 x 10^5 cells/ml) were infected with virus at a moi of 0.01 in the presence of serial D-D4FC dilutions. Each dilution was tested in triplicate. […]

[13] = system: 4X AZTPITT (67N,70R,215Y,219Q); assay: Effect against HIV-1 and cloned viruses in human PBM cells; format: cell-based; details: for EC50 / EC90: human PBM cells
Source text: as §1

[14] = system: 215/41PITT; assay: as above; format: cell-based; details: for FI50: EC50 relative to HIV-1LAV or xxBRUPITT
Source text: as §1

[15] = system: M184V/T215YPITT; assay: as above; format: cell-based; details: for FI50: EC50 relative to HIV-1LAV or xxBRUPITT; for FI90: EC90 relative to HIV-1LAV or xxBRUPITT
Source text: as §1

[16] = system: T215YPITT; assay: as above; format: cell-based; details: for FI50: EC50 relative to HIV-1LAV or xxBRUPITT; for FI90: EC90 relative to HIV-1LAV or xxBRUPITT
Source text: as §1

[17] = system: M184VPITT; assay: as above; format: cell-based; details: for FI50: EC50 resistant virus relative to HIV-1LAV or xxBRUPITT; for FI90: EC90 resistant virus relative to HIV-1LAV or xxBRUPITT
Source text: as §1

[18] = system: HIV-1LAV; assay: as above; format: cell-based; details: Human immunodeficiency virus 1, PBMC
Source text: as §1

[19] = system: xxBRUPITT; assay: as above; format: cell-based; details: Human immunodeficiency virus 1, PBMC
Source text: as §1

[20] = system: L-D4FC-res.(25 µM); assay: as above; format: cell-based
Source text: as §1

[21] = acutely infected human PBM cells, Day 6
[22] = median effective concentration, acutely infected human PBM cells, Day 6, read-out: EC50
[23] = Human immunodeficiency virus 1, MT2, In MT-2 cells (courtesy of Dr. J. Mellors)
[24] = EC90 relative to HIV-1LAV or xxBRUPITT
[25] = Human immunodeficiency virus 1, PBMC
[26] = Human immunodeficiency virus 1, PBMC, human PBM cells
[27] = In MT-2 cells (courtesy of Dr. J. Mellors)
[28] = human PBM cells, L-D4FC-res.(25 µM) virus

## Cc1cn([C@H]2C[C@H](N=[N+]=[N-])[C@@H](CO)O2)c(=O)[nH]c1=O [AZT, 3'-azido-3'-deoxythymidine]
[1]
  EC50: 3.3 nM

## Cc1cn([C@H]2C=C[C@@H](CO)O2)c(=O)[nH]c1=O [D4T, 2',3'-dideoxy-2',3'-didehydrothymidine]
[1]; [21]
  EC90: 220 nM
[1]; [22]
  EC50: 15 nM

## Nc1nc(=O)n([C@H]2C=C[C@@H](CO)O2)cc1F [D-D4FC, β-2',3'-didehydro-2',3'-dideoxy-5-fluorocytidine]
[2]; Human immunodeficiency virus 1, MT2
  EC50: 56 nM
[2]; MT-2 cells, xxK70N/V901/R172K versus xxLAI, 10080 min
  Fold Resistance: 0.4
[3]; Human immunodeficiency virus 1, MT2, recombinant xxR172K
  EC50: 230 nM
[3]; xxR172K versus xxLAI, 10080 min
  Fold Resistance: 0.8
[4]; Human immunodeficiency virus 1, MT2, recombinant xxV90I
  EC50: 250 nM
[4]; xxV90I versus xxLAI, 10080 min
  Fold Resistance: 1.5
[5]; Human immunodeficiency virus 1, MT2, recombinant xxK70N
  EC50: 240 nM
[5]; xxK70N versus xxLAI, 10080 min
  Fold Resistance: 1.4
[6]; Human immunodeficiency virus 1, MT2, recombinant xxK65R
  EC50: 1240 nM
[6]; xxK65R versus xxLAI, 10080 min
  Fold Resistance: 3.9
[7]; Human immunodeficiency virus 1, MT2, recombinant xxV901/R172K
  EC50: 360 nM
[7]; xxV901/R172K versus xxLAI, 10080 min
  Fold Resistance: 1.3
[8]; [23]
  EC50: 45 nM
[8]; listed as β-D-D4FC
  FI50: 0.2
[9]; [23]
  EC50: 40 nM
[9]; listed as β-D-D4FC
  FI50: 0.2
[10]; Human immunodeficiency virus 1, MT2, p24 antigen, selection #1 passage 37, mutations K70N
  EC50: 4070 nM
[10]; versus wild type HIV-1LAI, mutations K70N, 10080 min
  Fold Resistance: 19.3 and 19.4
[11]; Human immunodeficiency virus 1, MT2, MT-2 cells
  EC50: 1100 nM
[11]; MT-2 cells
  EC50: 1110 nM
[11]; MT-2 cells, versus wild type HIV-1LAI, 10080 min
  Fold Resistance: 5.3
[12]
  EC50: 210 nM
[13]; EC50 relative to HIV-1LAV or xxBRUPITT
  FI50: 1
[13]; [24]
  FI90: 1
[13]; [25]
  EC50: 72 nM
  EC90: 460 nM
[14]; listed as β-D-D4FC
  FI50: 2
[14]; [24]
  FI90: 1
[14]; [26]
  EC50: 130 nM
  EC90: 490 nM
[15]; listed as β-D-D4FC
  FI50: 1
  FI90: 1
[15]; [26]
  EC50: 57 nM
  EC90: 470 nM
[16]; listed as β-D-D4FC
  FI50: 1
  FI90: 1
[16]; [26]
  EC50: 67 nM
  EC90: 350 nM
[17]; listed as β-D-D4FC
  FI50: 2
  FI90: 2
[17]; [26]
  EC50: 140 nM
  EC90: 1040 nM
[18]
  EC50: 220 nM
  EC90: 1320 nM
[19]
  EC50: 65 nM
[1]; [21]
  EC90: 78 nM
[1]; [22]
  EC50: 7.6 nM

## Nc1nc(=O)n([C@H]2C=C[C@@H](CO)O2)cc1F [β-L-D4FC, β-2',3'-didehydro-2',3'-dideoxy-5-fluorocytidine, reference compound]
[8]; [27]
  EC50: > 3300 nM
[8]
  FI50: >47
[9]; [27]
  EC50: > 3300 nM
[9]
  FI50: >47
[13]
  EC50: 16 nM
  EC90: 110 nM
[14]
  FI50: 1
[20]; EC50 relative to HIV-1LAV or xxBRUPITT, L-D4FC-res.(25 µM)
  FI50: 222
[20]; EC90 relative to HIV-1LAV or xxBRUPITT, L-D4FC-res.(25 µM)
  FI90: 208
[20]; [28]
  EC50: 7560 nM
  EC90: 33300 nM
[15]
  FI50: 332
  FI90: 848
[16]
  FI50: 0.2
  FI90: 0.3
[17]
  FI50: 146
  FI90: 163
